In series [1] the test system is Saccharomyces cerevisiae. Put plainly: Cytotoxicity against Saccharomyces cerevisiae DMY2843 at 10 mM. In kind it is organism-based. The settings on record: in vivo, 10000 µM.
In series [2] the target is T1, NAD-dependent protein deacetylase sirtuin-1 (Homo sapiens, UniProt Q96EB6).
T1 sequence (Q96EB6 whole entry): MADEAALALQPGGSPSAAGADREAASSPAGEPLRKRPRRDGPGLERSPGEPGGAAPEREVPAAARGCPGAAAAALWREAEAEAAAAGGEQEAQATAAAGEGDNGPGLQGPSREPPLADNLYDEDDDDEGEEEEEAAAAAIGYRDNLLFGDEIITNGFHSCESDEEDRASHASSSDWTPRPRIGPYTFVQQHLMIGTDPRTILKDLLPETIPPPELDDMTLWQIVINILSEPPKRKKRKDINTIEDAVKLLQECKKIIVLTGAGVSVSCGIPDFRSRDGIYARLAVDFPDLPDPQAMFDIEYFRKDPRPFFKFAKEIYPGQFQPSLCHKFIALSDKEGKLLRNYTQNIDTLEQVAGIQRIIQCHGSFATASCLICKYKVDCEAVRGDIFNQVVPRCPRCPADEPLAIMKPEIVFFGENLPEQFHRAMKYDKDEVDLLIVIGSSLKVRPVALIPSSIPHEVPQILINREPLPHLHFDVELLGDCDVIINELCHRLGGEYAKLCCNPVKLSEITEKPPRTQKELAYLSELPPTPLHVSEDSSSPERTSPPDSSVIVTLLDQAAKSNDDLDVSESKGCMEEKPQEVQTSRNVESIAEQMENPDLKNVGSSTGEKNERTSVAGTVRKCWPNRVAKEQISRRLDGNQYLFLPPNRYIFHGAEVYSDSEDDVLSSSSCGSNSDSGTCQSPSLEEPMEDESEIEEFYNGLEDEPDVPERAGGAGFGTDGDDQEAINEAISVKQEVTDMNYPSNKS
The experiment in a line: Inhibition of human recombinant SIRT1 using Arg-His-Lys-Lys(epsilon-acetyl)-AMC at room temperature for 45 mins by fluorescent screening assay.

For series [3], the system named is Saccharomyces cerevisiae. The experiment in a line: Inhibition of Sir2p in Saccharomyces cerevisiae DMY2843 assessed as minimum inhibitory concentration.
For series [4], the target named is T2, NAD-dependent protein deacetylase sirtuin-2 (Homo sapiens, UniProt Q8IXJ6).
T2 sequence (Q8IXJ6 whole entry): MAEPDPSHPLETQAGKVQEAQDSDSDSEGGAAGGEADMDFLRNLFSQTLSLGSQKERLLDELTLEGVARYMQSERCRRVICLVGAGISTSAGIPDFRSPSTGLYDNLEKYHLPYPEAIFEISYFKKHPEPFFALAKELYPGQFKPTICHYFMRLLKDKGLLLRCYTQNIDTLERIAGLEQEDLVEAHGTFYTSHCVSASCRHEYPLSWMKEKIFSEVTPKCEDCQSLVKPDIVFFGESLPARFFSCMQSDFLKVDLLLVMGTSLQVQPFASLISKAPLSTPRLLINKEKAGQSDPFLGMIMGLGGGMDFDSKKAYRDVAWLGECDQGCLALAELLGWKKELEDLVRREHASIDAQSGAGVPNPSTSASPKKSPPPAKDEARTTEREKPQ
Put plainly: Inhibition of human recombinant SIRT2 using Arg-His-Lys-Lys(epsilon-acetyl)-AMC at 37 degC for 45 mins by fluorescent screening assay.

Values after ≈ are worked out from the molar mass of the structure shown.

For orientation: IC50 means the concentration that inhibits the measured activity by half.

For the compound `CC[C@@H]1CC(=O)[C@H]2[C@@H](CC=C(C)[C@@H]2O)[C@]1(C)C(=O)C1=C(O)NCC1=O` [STREPTOSETIN A], the Activity result in series [1] is “Toxic”. Besides, the figures for the IC50 in series [2] and in series [4] were 3.7 mM and 4.5 mM, respectively. The MIC in series [3] amounted to 2500 µM (≈ 869 µg/mL).
Turning to `CC(NC(=O)c1ccccc1/N=C/c1c(O)ccc2ccccc12)c1ccccc1` (stereo not given), in series [3], the MIC is 12.5 µM (≈ 4.93 µg/mL).

The values above are taken from ChEMBL document CHEMBL2203192, “Creation of an HDAC-based yeast screening method for evaluation of marine-derived actinomycetes: discovery of streptosetin A” (J Nat Prod, 2012).
